One experiment relates to P. aeruginosa AUMC-Pa-2. The following applies: strain AUMC-Pa-2; antibiotic + D-11 (MICb/MICbc 64/4). How it is done: (§1) The MIC tests were performed in triplicate using broth microdilution in accordance with Clinical and Laboratory Standards Institute (CLSI) recommendations (http://iacld.ir/DL/public/CLSI-2018-M100-S28.pdf). Briefly, drugs were two-fold diluted in MHB and mixed with an equal volume of bacterial suspensions containing approximately 1 × 10^6 CFU/mL in 96-well microliter plate. After 18 h incubation at 37 °C, the MIC values were defined as the lowest concentrations of antibiotics with no visible growth of bacteria. […] Otherwise, 1/4 MIC of the peptide was used in the combination. […] If needed, membrane compounds PG, PE, PC, CL or LPS, or membrane stabilizers MgCl2 or CaCl2, or efflux pumps inhibitor PAβN were added to the broth medium to clarify the effect of other substances on the synergy between peptide and antibiotics. All the tests were performed in triplicate.
(§2) The fractional inhibitory concentration (FIC) indices were calculated using the previously described formula FICI = FICa + FICb = MICac/MICa + MICbc/MICb. The FICI was interpreted according to EUCAST [65] as follows: synergistic, FICI≤0.5; additive, 0.5<FICI≤1; indifferent, 1<FICI<2; antagonistic, FICI ≥2. For the FICI calculations, twice the highest concentration tested was used in the cases where the MIC was not reached.

The next experiment concerns P. aeruginosa NR-31040. Briefly: microbe, parasite or virus in culture. Details: MICa: MIC of the antibiotic / MICac: MIC of the antibiotic in the combination: unit not given beside the values. To be noted: strain NR-31040, unit not given; for MICac: MIC of the antibiotic in the combination: with D-11 at MICbc 4. The procedure:
as §1, §2

The subject of the next experiment is P. aeruginosa PAK. Briefly: microbe, parasite or virus in culture. More on the design: MICa: MIC of the antibiotic / MICac: MIC of the antibiotic in the combination: unit not given beside the values. To be noted: for FICI / MICac: MIC of the antibiotic in the combination: strain PAK; for FICI: antibiotic + D-11 (MICb/MICbc 64/4); for MICac: MIC of the antibiotic in the combination: with D-11 at MICbc 4, unit not given. The procedure:
as §1, §2

The subject of a further experiment is P. aeruginosa NR-31041. As to the kind of experiment: microbe, parasite or virus in culture. Details: MICa: MIC of the antibiotic / MICac: MIC of the antibiotic in the combination: unit not given beside the values. To be noted: for FICI / MICac: MIC of the antibiotic in the combination: strain NR-31041; for FICI: antibiotic + D-11 (MICb/MICbc 64/4); for MICac: MIC of the antibiotic in the combination: with D-11 at MICbc 4, unit not given. The procedure: as §1, §2

The test system of the next experiment is P. aeruginosa ATCC27853. As to the kind of experiment: microbe, parasite or virus in culture. Details: MICa: MIC of the antibiotic / MICac: MIC of the antibiotic in the combination: unit not given beside the values. The following applies: for FICI / MICac: MIC of the antibiotic in the combination: strain ATCC27853; for FICI: antibiotic + D-11 (MICb/MICbc 32/4); for MICac: MIC of the antibiotic in the combination: with D-11 at MICbc 4, unit not given. The procedure:
as §1, §2

The test system of a further experiment is P. aeruginosa PA14. As to the kind of experiment: microbe, parasite or virus in culture. Details: MICa: MIC of the antibiotic / MICac: MIC of the antibiotic in the combination: unit not given beside the values. The following applies: for MICac: MIC of the antibiotic in the combination: strain PA14, with D-11 at MICbc 4, unit not given. The procedure: as §1, §2

In a further experiment the test system is P. aeruginosa AUMC-Pa-5. Briefly: microbe, parasite or virus in culture. To be noted: strain AUMC-Pa-5; for FICI: antibiotic + D-11 (MICb/MICbc 64/4); for MICac: MIC of the antibiotic in the combination: with D-11 at MICbc 4. An outline of the steps:
(§3)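 Two-fold serial dilutions in MHB received an equal volume of bacteria (suspension about 1 × 10^6 CFU/mL). Plates were held 18 h at 37 °C, then read visually for growth. Triplicate, CLSI-based.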

The subject of a further experiment is P. aeruginosa AUMC-Pa-6. As to the kind of experiment: microbe, parasite or virus in culture. To be noted: for FICI / MICac: MIC of the antibiotic in the combination: strain AUMC-Pa-6; for FICI: antibiotic + D-11 (MICb/MICbc 64/4); for MICac: MIC of the antibiotic in the combination: with D-11 at MICbc 4, unit not given. A digest of the protocol: as §3
The subject of another experiment is P. aeruginosa AUMC-Pa-3. Briefly: microbe, parasite or virus in culture. The following applies: for MICac: MIC of the antibiotic in the combination: with D-11 at MICbc 4, unit not given. An outline of the steps: as §3
The next experiment has as its system P. aeruginosa AUMC-Pa-4. As to the kind of experiment: microbe, parasite or virus in culture. The following applies: for MICac: MIC of the antibiotic in the combination: strain AUMC-Pa-4, with D-11 at MICbc 4, unit not given. A digest of the protocol:
as §3

Another experiment concerns P. aeruginosa AUMC-Pa-1. The following applies: strain AUMC-Pa-1; antibiotic + D-11 (MICb/MICbc 128/4). How it is done:
as §1, §2

In a further experiment the test system is P. aeruginosa HM-214. To be noted: strain HM-214; antibiotic + D-11 (MICb/MICbc 128/4). The procedure:
as §1, §2

In a further experiment the test system is P. aeruginosa PAO1. As to the kind of experiment: microbe, parasite or virus in culture. The following applies: PAO1; for FICI / MICac: the MIC for the antibiotic in the combination: S3 Table. A digest of the protocol:
as §3

Each structure is given as a SMILES string.

Consider two molecules from publication PMC8445441, “Elucidating the mechanism by which synthetic helper peptides sensitize Pseudomonas aeruginosa to multiple antibiotics” (PLoS Pathogens, 2021).

Consider `CC[C@H]1OC(=O)[C@H](C)[C@@H](O[C@H]2C[C@@](C)(OC)[C@@H](O)[C@H](C)O2)[C@H](C)[C@@H](O[C@@H]2O[C@H](C)C[C@H](N(C)C)[C@H]2O)[C@](C)(O)C[C@@H](C)C(=O)[C@H](C)[C@@H](O)[C@]1(C)O` [Erythromycin], for which the FICI in the experiment with P. aeruginosa AUMC-Pa-2 is listed as 0.313; in the experiment with P. aeruginosa PAK, 0.188; in the experiment with P. aeruginosa NR-31041 it was 0.188; with P. aeruginosa ATCC27853, 0.188; in the experiment on P. aeruginosa AUMC-Pa-5 it was 0.313; in the experiment with P. aeruginosa AUMC-Pa-6, 0.313. The “MICac: MIC of the antibiotic in the combination” value (shortened to “MICac: MIC of the antibiotic”) in the experiment on P. aeruginosa NR-31040 amounted to 32; in the experiment on P. aeruginosa PAK, 16; with P. aeruginosa NR-31041, 16; in the experiment with P. aeruginosa ATCC27853, 8; with P. aeruginosa PA14 it was 32; in the experiment with P. aeruginosa AUMC-Pa-5 (unit not given) it was 32. Moreover, the results for the “MICac: MIC of the antibiotic” value with P. aeruginosa AUMC-Pa-6, in the experiment with P. aeruginosa AUMC-Pa-3 (strain AUMC-Pa-3) and in the experiment on P. aeruginosa AUMC-Pa-4 were 32, 8 and 32, respectively.

Consider `CC1COc2c(N3CCN(C)CC3)c(F)cc3c(=O)c(C(=O)O)cn1c23` (centres unmarked) [Ofloxacin], for which the FICI in the experiment on P. aeruginosa AUMC-Pa-2 was determined as 0.563; in the experiment with P. aeruginosa AUMC-Pa-1 it was 0.094; in the experiment on P. aeruginosa HM-214, 1.031; with P. aeruginosa PAK it was 0.313; in the experiment on P. aeruginosa NR-31041, 0.313; with P. aeruginosa ATCC27853 it was 0.250. The FICI turned out to be 0.188 in the experiment with P. aeruginosa PAO1 (antibiotic + 2 μM D-11); 0.156 in the experiment on P. aeruginosa PAO1 (antibiotic + 4 μM D-11); 2.063 in the experiment on P. aeruginosa AUMC-Pa-5; 1.063 with P. aeruginosa AUMC-Pa-6; 0.281 with P. aeruginosa AUMC-Pa-3 (strain AUMC-Pa-3, antibiotic + D-11 (MICb/MICbc 128/4)). Further, the “MICa: MIC of the antibiotic” value in the experiment on P. aeruginosa NR-31040 (antibiotic alone) was found to be 2; in the experiment on P. aeruginosa AUMC-Pa-5 (antibiotic alone, unit not given), 1. The “MICac: MIC of the antibiotic” value came out at 1 with P. aeruginosa NR-31040; 0.5 with P. aeruginosa PAK; 0.5 in the experiment with P. aeruginosa NR-31041; 0.25 in the experiment with P. aeruginosa ATCC27853; 0.5 with P. aeruginosa PA14; 2 in the experiment on P. aeruginosa AUMC-Pa-5 (unit not given). The “MICac: MIC of the antibiotic” value in the experiment on P. aeruginosa AUMC-Pa-6 was 0.5/0.5; in the experiment on P. aeruginosa AUMC-Pa-3 (strain AUMC-Pa-3), 0.25; with P. aeruginosa AUMC-Pa-4, 0.25. Moreover, the MIC in the experiment on P. aeruginosa PAK (Pseudomonas aeruginosa, 18 h, read-out: MICa: MIC of the antibiotic) was 2 µM; with P. aeruginosa NR-31041 (Pseudomonas aeruginosa, NR31041, 18 h, read-out: MICa: MIC of the antibiotic), 2 µM; in the experiment on P. aeruginosa ATCC27853 (Pseudomonas aeruginosa, ATCC27853, 18 h, read-out: MICa: MIC of the antibiotic), 2 µM; in the experiment on P. aeruginosa PA14 (Pseudomonas aeruginosa, PA14, 18 h, read-out: MICa: MIC of the antibiotic), 1 µM; with P. aeruginosa PAO1 (Pseudomonas aeruginosa, PAO1, 18 h, read-out: MICa: the MIC of antibiotics, S3 Table, antibiotic alone), 1 µM; in the experiment on P. aeruginosa AUMC-Pa-6 (Pseudomonas aeruginosa, AUMCPA6, 18 h, read-out: MICa: MIC of the antibiotic), 0.5 µM. For the same molecule, the MIC stood at 1 µM with P. aeruginosa AUMC-Pa-3 (Pseudomonas aeruginosa, AUMCPA3, 18 h, read-out: MICa: MIC of the antibiotic) and 1 µM with P. aeruginosa AUMC-Pa-4 (Pseudomonas aeruginosa, AUMCPA4, 18 h, read-out: MICa: MIC of the antibiotic). Besides, the “MICac: the MIC for the antibiotic in the combination” value turned out to be 0.125 µM in the experiment with P. aeruginosa PAO1 (with 2 μM D-11) and 0.03125 µM in the experiment on P. aeruginosa PAO1 (with 4 μM D-11).
